Laboratory results from patent publication US20250302795A1, “SMALL MOLECULE COMPOUNDS WITH NEGATIVE REGULATORY EFFECTS ON Nrf2 SIGNALING [sequence] AND THEIR POTENTIAL APPLICATIONS” (Beijing Hebabiz Biotechnology Co., Inc., priority 2022, published 2025).

Columns and labels:
Assay type in all cases: in vivo, rat
[1] = test system: rats with nonalcoholic steatohepatitis induced by a high-fat diet and CCl4; experiment: Liver indices, non-alcoholic steatohepatitis model induced by high-fat diet and CCl4; conditions: positive control group
Experimental: (§1) The normal control group were fed a standard diet while the other groups were exclusively fed a high-fat diet consisting of 88% basal diet +10% lard +2% cholesterol for the initial six weeks. Starting from the seventh week, they received subcutaneous injections of a 30% CCl4 olive oil solution at a dosage of 0.2 ml/100 g behind their back twice per week for a total of four times. Once the model was successfully replicated, the corresponding drugs were administered orally (10 ml/kg) in each treatment group, and both the normal control group and the model group received equal volumes of a 0.5% CMC-Na solution once daily for ten consecutive weeks. Throughout the experimental period, the rats were provided with ad libitum access to food and water, while the animal chamber was maintained under controlled conditions of quietness, natural lighting, a temperature of 25±0.5° C., and a humidity level of 55±5%. The rats' body weights were measured once per week and recorded.
After blood sampling from the abdominal aorta of rats, the liver tissue was isolated, rinsed with normal saline solution, dried using filter paper, weighed accurately, and subsequently calculated the Liver indices: Liver indices=wet liver weight/body weight×100%.

[2] = test system: rats with nonalcoholic steatohepatitis induced by a high-fat diet and CCl4; experiment: Serum biochemical indices, high-fat diet and CCl4 model; conditions: end of tenth week of administration, positive control group
Experimental: as §1, with “Starting” for “The normal control group were fed a standard diet while the other groups were exclusively fed a high-fat diet consisting of 88% basal diet +10% lard +2% cholesterol for the initial six weeks. Starting”
(§2) At the end of the tenth week of administration, all rats underwent a 16-hour fasting period following their final administration and were intraperitoneally injected with a 20% ulinastatin solution (10 ml/kg) for anesthesia. Subsequently, blood samples were collected from the abdominal aorta and allowed to stand for one hour, and then centrifuged at 4° C. for fifteen minutes at a speed of 3000 r/min. Finally, the upper serum was stored at −80° C. Following the instructions provided with the biochemical index detection kit, levels of HDL-C, LDL-C, NEFA, AST, ALT, UA, TC, TG, PCIII, IV-C LN and HA in rat serum were determined.
According to the kit instructions, the concentration of fasting plasma glucose (FPG) in serum was determined using colorimetry, while the concentration of fasting insulin (FINS) in serum was measured through radioimmunoassay.

[3] = test system: rats with nonalcoholic steatohepatitis induced by a high-fat diet and CCl4; experiment: Four indices of serum hepatic fibrosis, high-fat diet and CCl4 model; conditions: positive control group
Experimental: as §1, with “Starting” for “The normal control group were fed a standard diet while the other groups were exclusively fed a high-fat diet consisting of 88% basal diet +10% lard +2% cholesterol for the initial six weeks. Starting”
as §2

[4] = test system: rats with nonalcoholic steatohepatitis induced by a high-fat diet and CCl4; experiment: Liver histopathology (HE, oil red, Masson staining), high-fat diet and CCl4 model; conditions: positive control groups and NR218 high-, medium-, low-dose groups
Experimental: as §1
After collecting blood samples from the abdominal aorta of rats, the liver tissue was isolated and fixed in a 10% neutral formalin solution. Following standard procedures for embedding, sectioning, dewaxing, staining, clearing, and sealing, the liver tissues were subjected to HE (hematoxylin-eosin), Masson's trichrome, and oil red staining techniques respectively. […]

[5] = test system: rats with non-alcoholic steatohepatitis induced by high-fat diet; experiment: Liver indices, non-alcoholic steatohepatitis model induced by high-fat diet
Experimental: (§3) The normal control group was fed a standard diet for twelve weeks while the other groups were fed a high-fat diet consisting of 88% basal diet+10% lard+2% cholesterol for twelve weeks. After establishing the model, the drug groups received their respective treatments at a dosage of 10 ml/kg while the normal and model groups received an equal volume of 0.5% CMC-Na solution. The rats were provided with ad libitum access to water and food, while the animal chamber was maintained under controlled conditions of quietness, natural lighting, a temperature of 25±0.5° C., and a humidity level of 55±5%. The rats' body weights were measured once per week and recorded.
(3) Liver indices was determined by dividing the wet weight of the liver by the body weight of rats and multiplying by 100%, after liver tissue was isolated, washed with normal saline, dried using filter paper, and weighed following blood sampling from the abdominal aorta. (4) HE staining and oil red staining were performed on liver tissue samples obtained from the abdominal aorta of rats. The tissue was fixed in 10% neutral formalin, followed by embedding, slicing, dewaxing, staining, transparency treatment, and sealing using routine procedures. Microscopic examination was conducted to observe the pathological changes in rat liver tissues across different groups. Additionally, the NASH-CRN scoring system was employed to assess NAS scores. (5) Detection of Proteins Associated with Non-Alcoholic Steatohepatitis

[6] = Body weight of rats, high-fat diet + CCl4 non-alcoholic steatohepatitis model; conditions: positive control group, in g (unit assumed)
Experimental: as §1
The weight changes of rats in each group were compared by conducting weekly weigh-ins after the experiment.

[7] = Body weight of rats, high-fat diet non-alcoholic steatohepatitis model; conditions: positive control group, in g (unit assumed)
Experimental: as §3
The rats were weighed weekly to monitor the fluctuations in body weight within each experimental group.

Compound: CC[C@H](C)C(=O)O[C@H]1C[C@@H](C)C=C2C=C[C@H](C)[C@H](CC[C@@H]3C[C@@H](O)CC(=O)O3)[C@H]21 [Lovastatin]
- Liver Indices [1]: 3.56 ± 0.49%
- HOMA-IR ([2]; FPG x FINS/22.5): 5.50
- ALT ([2]; serum): 43.66 U/L
- AST ([2]; serum): 69.18 U/L
- HDL-C ([2]; serum): 1.31 mmol/L
- LDL-C ([2]; serum): 1.20 mmol/L
- NEFA ([2]; serum): 0.76 mmol/L
- IV-C [3]: 15.59 ± 7.47 µg/L
- PC-III [3]: 10.52 ± 2.34 µg/L
- Oil red O staining of liver tissue (in words) [4]: significantly ameliorated steatosis severity and reduced lipid droplet content
- liver indices versus model group (in words) ([5]; NR218 at high, medium and low doses, P<0.01 or P<0.05): significant decrease compared to the model group
- Liver Indices ([5]; high-fat diet model, positive control group): 3.23 ± 0.56 %
- body weight ([6]; week 1): 195.70 ± 6.24
- body weight ([6]; week 2): 253.01 ± 9.37
- body weight ([6]; week 3): 315.37 ± 15.71
- body weight ([6]; week 4): 368.78 ± 19.25
- body weight ([6]; week 5): 409.85 ± 24.64
- body weight ([6]; week 6): 439.81 ± 28.73
- body weight ([6]; week 7): 470.75 ± 34.51
- body weight ([6]; week 8): 491.21 ± 35.35
- body weight ([6]; week 9): 491.46 ± 34.37
- body weight ([6]; week 10): 503.05 ± 37.51
- body weight ([6]; week 11): 486.62 ± 44.00
- body weight ([6]; week 12): 506.22 ± 46.50
- body weight ([6]; week 13): 530.00 ± 54.43
- body weight ([6]; week 14): 531.16 ± 48.26
- body weight ([6]; week 15): 525.60 ± 53.49
- body weight ([6]; week 16): 539.63 ± 46.78
- body weight ([6]; week 17): 555.78 ± 49.24
- body weight ([6]; week 18): 561.12 ± 51.49
- body weight ([7]; week 0 (pre-administration)): 196.21 ± 4.57
- body weight ([7]; week 1 (pre-administration)): 258.64 ± 9.56
- body weight ([7]; week 2 (pre-administration)): 315.91 ± 19.58
- body weight ([7]; week 3 (pre-administration)): 356.16 ± 26.94
- body weight ([7]; week 4 (pre-administration)): 392.60 ± 32.93
- body weight ([7]; week 5 (pre-administration)): 432.81 ± 38.14
- body weight ([7]; week 6 (pre-administration)): 464.35 ± 45.01
- body weight ([7]; week 7 (pre-administration)): 482.88 ± 44.36
- body weight ([7]; week 8 (pre-administration)): 503.37 ± 45.95
- body weight ([7]; week 9 (pre-administration)): 530.26 ± 48.68
- body weight ([7]; week 10 (pre-administration)): 548.47 ± 45.65
- body weight ([7]; week 11 (pre-administration)): 547.23 ± 54.49
- body weight ([7]; week 12 (pre-administration)): 543.06 ± 66.86
- body weight ([7]; week 13): 534.63 ± 62.63
- body weight ([7]; week 14): 542.19 ± 52.03
- body weight ([7]; week 15): 543.36 ± 47.44
- body weight ([7]; week 16): 547.25 ± 37.26
- body weight ([7]; week 17): 561.64 ± 53.62
- body weight ([7]; week 18): 593.39 ± 48.55
- body weight ([7]; week 19): 615.74 ± 52.23
- body weight ([7]; week 20): 600.22 ± 50.84
